System: SYO-1 tumor spheroids, viability % test/control
Experiment: Anticancer human tumor SYO-1 cell line growth inhibition;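 note: spheroids exposed to agents for 7 days before viability read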;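 for viability, T/C: 100% = DMSO vehicle control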
Conditions: spheroids with HUVEC and MSC; for IC50: curve of first compound; for viability, T/C: stronger effect = lower value
Excerpt: Multicellular complex tumor spheroid response to DNA repair inhibitors in combination with DNA-damaging drugs
This study explores the anticancer activities of DNA-damaging drugs and inhibitors of DNA damage repair, both as single agents and in combinations. Complex tumor spheroids comprised of malignant cells, endothelial cells and mesenchymal stem cells served as an in vitro model for human solid tumors. This model system incorporates physiologically relevant features and patient-derived or established malignant cell lines with clinically relevant genetic alterations from many tumor types. Twenty-six patient-derived or established malignant cell lines were evaluated representing sarcoma, melanoma, small cell lung cancer (SCLC), non-small cell lung cancer (NSCLC), as well as bladder, ovarian and pancreatic cancers. The concentration ranges selected for each drug and investigational agent were based upon clinically achievable concentrations if the clinical Cmax of the agent was known.
Compounds. The drugs and compounds olaparib (NSC753686), talazoparib (NSC767125), berzosertib (NSC777718), elimusertib (NSC800525), nedisertib (NSC802822), VX-984 (NSC792969), AZD-1390 (NSC803789), temozolomide (NSC362856), topotecan (NSC609699), trabectedin (NSC813783), staurosporine (NSC755774), and gemcitabine (NSC613327) were obtained from the National Cancer Institute (NCI) Developmental Therapeutics Program Chemical Repository. The FDA-approved anticancer drug set is available from the Developmental Therapeutics Program at https://dtp.cancer.gov/organization/dscb/obtaining/available_plates.htm. […] The stock solutions were prepared in dimethyl sulfoxide (DMSO, Sigma-Aldrich, St. Louis, MO, cat. D2650) at 400-fold the tested concentration and stored at -70 degrees C. Prior to their use, the stock solutions were diluted in fresh medium and the final DMSO concentration in the assay was 0.25% (v/v). All drugs and investigational agents were tested over a range starting from a high concentration at or near the clinical Cmax and decreasing in half-log increments. If the clinical Cmax for an agent had not been determined, the highest concentration tested was 10 microM.
Cell Lines. The patient-derived cancer cell (PDC) lines: 156681-154-R-J1-PDC, 283228-195-R-J1-PDC, 287954-098-R-J1-PDC, 292921-168-R-J2-PDC, 349418-098-R-PDC, 425362-245-T-J1-PDC, 556581-035-R-J1-PDC, and BL0293-F563-PDC were received from the NCI Patient-Derived Models Repository (PDMR, https://pdmr.cancer.gov). The established cell lines HS-SY-2 (RRID:CVCL_8719), MPNST, and SYO-1 (RRID:CVCL_7146) were obtained from the Sloan Kettering Institute. The alveolar soft parts sarcoma cell line ASPS-1 (RRID:CVCL_S738) was established at the NCI and grown from internal seed stocks. The following established cell lines were purchased from the American Type Culture Collection (ATCC, Manassas, VA): G-401 (ATCC, cat. CRL-1441, RRID:CVCL_0270), SW982 (ATCC, cat. HTB-93, RRID:CVCL_1734), VA-ES-BJ (ATCC, cat. CRL-2138, RRID:CVCL_1785), NCI-H719 (ATCC, cat. CRL-5837, RRID:CVCL_1582), NCI-H196 (ATCC, cat. CRL-5823, RRID:CVCL_1509), NCI-H841 (ATCC, cat. CRL-5845, RRID:CVCL_1595), NCI-H1618 (ATCC, cat. CRL-5879, RRID:CVCL_1480), NCI-H1876 (ATCC, cat. CRL-5902, RRID:CVCL_1503), DMS 114 (ATCC, cat. CRL-2066; RRID:CVCL_1174), NCI-H211 (ATCC, cat. CRL-5824; RRID:CVCL_1529), and SW 1271 (ATCC, cat. CRL-2177, RRID:CVCL_1716). The small cell lung cancer cell line COR-L88 was purchased from Sigma-Aldrich (cat. 92031917-1VL, RRID:CVCL_1141). The non-small cell lung cancer cell lines NCI-H226 (RRID:CVCL_1544) and NCI-H322M (RRID:CVCL_1557) were established at the NCI and grown from internal seed stocks. Pooled donor human umbilical vein endothelial cells (HUVEC, Lonza, cat. CC-2519) and human mesenchymal stem cells (hMSC, Lonza, cat. PT-2501) were purchased from Lonza (Walkersville, MD).
Cell Culture. All cells were maintained in an incubator at 37 degrees C and 5% CO2 with 95% humidity. […]

CC1COCCN1c1cc(-c2ccnn2C)c2ccnc(-c3ccn[nH]3)c2n1 (stereo not given) + COc1cc2c(cc1O)CCNC21CSC2c3c(OC(C)=O)c(C)c4c(c3C(COC1=O)N1C(O)C3Cc5cc(C)c(OC)c(O)c5C(C21)N3C)OCO4
IC50 (second compound 30 pM): < 31.6 nM | IC50 (second compound 94.9 pM): < 31.6 nM | IC50 (second compound 0.0003 µM): < 31.6 nM | IC50 (second compound 0.000949 µM): < 31.6 nM | IC50 (second compound 0.003 µM): < 31.6 nM | viability, T/C (second compound 30 pM, first compound 0.0316 µM): 3.62% | viability, T/C (second compound 30 pM, first compound 0.1 µM): 1.79% | viability, T/C (second compound 30 pM, first compound 0.316 µM): 1.29% | viability, T/C (second compound 30 pM, first compound 1 µM): 0.95% | viability, T/C (second compound 30 pM, first compound 3.16 µM): 0.42% | viability, T/C (second compound 30 pM, first compound 10 µM): 0.48% | viability, T/C (second compound 94.9 pM, first compound 0.0316 µM): 1.83% | viability, T/C (second compound 94.9 pM, first compound 0.1 µM): 1.41% | viability, T/C (second compound 94.9 pM, first compound 0.316 µM): 1.17% | viability, T/C (second compound 94.9 pM, first compound 1 µM): 0.6% | viability, T/C (second compound 94.9 pM, first compound 3.16 µM): 0.3% | viability, T/C (second compound 94.9 pM, first compound 10 µM): 0.41% | viability, T/C (second compound 0.0003 µM, first compound 0.0316 µM): 1.24% | viability, T/C (second compound 0.0003 µM, first compound 0.1 µM): 1.22% | viability, T/C (second compound 0.0003 µM, first compound 0.316 µM): 0.9% | viability, T/C (second compound 0.0003 µM, first compound 1 µM): 0.63% | viability, T/C (second compound 0.0003 µM, first compound 3.16 µM): 0.26% | viability, T/C (second compound 0.0003 µM, first compound 10 µM): 0.29% | viability, T/C (second compound 0.000949 µM, first compound 0.0316 µM): 1.03% | viability, T/C (second compound 0.000949 µM, first compound 0.1 µM): 0.61% | viability, T/C (second compound 0.000949 µM, first compound 0.316 µM): 0.54% | viability, T/C (second compound 0.000949 µM, first compound 1 µM): 0.31% | viability, T/C (second compound 0.000949 µM, first compound 3.16 µM): 0.2% | viability, T/C (second compound 0.000949 µM, first compound 10 µM): 0.19% | viability, T/C (second compound 0.003 µM, first compound 0.0316 µM): 0.11% | viability, T/C (second compound 0.003 µM, first compound 0.1 µM): 0.11% | viability, T/C (second compound 0.003 µM, first compound 0.316 µM): 0.09% | viability, T/C (second compound 0.003 µM, first compound 1 µM): 0.09% | viability, T/C (second compound 0.003 µM, first compound 3.16 µM): 0.1% | viability, T/C (second compound 0.003 µM, first compound 10 µM): 0.16%

Source: PubChem BioAssay AID1845219 (Molecular Pharmacology Branch, DTP, NCI, 2023)
